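The compound was tested at five concentrations on cells cultured in 96-well plates, with a 48-hour exposure period. GI50 = concentration required for 50% inhibition of growth. At the TGI there is no net growth.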
Experiments:
Experiment in all cases: NCI tumour cell line growth inhibition, 48 h
A498 renal = test system: A498 renal
CAKI-1 renal = test system: CAKI-1 renal
HOP-62 NSCLC = test system: HOP-62 NSCLC
HS 578T breast = test system: HS 578T breast
MCF7 breast = test system: MCF7 breast
OVCAR-8 ovarian = test system: OVCAR-8 ovarian
SK-MEL-2 melanoma = test system: SK-MEL-2 melanoma
SN12C renal = test system: SN12C renal
UACC-257 melanoma = test system: UACC-257 melanoma
UO-31 renal = test system: UO-31 renal

| SMILES | TGI (A498 renal) [µM] | TGI (CAKI-1 renal) [µM] | TGI (HOP-62 NSCLC) [µM] | TGI (HS 578T breast) [µM] | TGI (MCF7 breast) [µM] | TGI (OVCAR-8 ovarian) [µM] | TGI (SK-MEL-2 melanoma) [µM] | TGI (SN12C renal) [µM] | TGI (UACC-257 melanoma) [µM] | TGI (UO-31 renal) [µM] | GI50 (A498 renal) [µM] | GI50 (CAKI-1 renal) [µM] | GI50 (HOP-62 NSCLC) [µM] | GI50 (HS 578T breast) [µM] | GI50 (MCF7 breast) [µM] | GI50 (OVCAR-8 ovarian) [µM] | GI50 (SK-MEL-2 melanoma) [µM] | GI50 (SN12C renal) [µM] | GI50 (UACC-257 melanoma) [µM] | GI50 (UO-31 renal) [µM] |
| --- | --- | --- | --- | --- | --- | --- | --- | --- | --- | --- | --- | --- | --- | --- | --- | --- | --- | --- | --- | --- |
| C/C(=N\NC(=S)N1CCN(c2ccccn2)CC1)c1cccc2cccnc12 | 71.1 | > 100 | > 100 | > 100 | > 100 | > 100 | 8.56 | 34.8 | > 100 | > 56.5 |  |  |  |  |  |  |  |  |  |  |
| CC(=O)O[C@H]1CC[C@]2(C)C3C(=O)C[C@]4(C)[C@@H](C(C)CCC(=O)O)CC[C@@]4(C)[C@@H]3CC[C@H]2C1(C)C (stereo partly specified) | > 50 | 46.1 | > 50 | 39.5 | > 50 | > 50 | > 50 | > 50 | 33.9 | > 50 | 22.2 | 20.8 | 27.2 | 11.9 | 20.7 | 15.7 | 45.8 | > 50 | 13.3 | 40.7 |
| CCN(CC)CCCC(C)Nc1ccnc(/C=C/c2ccc(Cl)cc2)c1 (stereo unspecified) | 5.2 | 4.11 | 4.11 | 5.81 | 4.84 | 7.57 | 4.25 | 10.9 | 3.59 | 3.17 | 1.62 |  |  |  |  |  |  |  |  |  |
| CC(=N\O)/C(C)=N/O.CC(=N\O)/C(C)=N/O.[Fe].[NH2-].c1c[nH]cn1 | > 100 | > 100 | > 100 | > 100 | > 100 | > 100 | > 100 | > 100 | > 100 | 4.34 | > 100 | > 100 | > 100 | > 100 | > 100 | > 100 | > 100 | > 100 | > 100 | 1.43 |
| C[C@@H](Oc1cc(-c2cnn(C3CCNCC3)c2)cnc1N)c1c(Cl)cc(F)cc1Cl | 3.82 | 12.6 | 9.52 | 10.1 | 2.12 | 16.3 | 5.41 | 13.3 | 3.07 | 13.2 | 1.3 | 3.17 | 2 | 2.41 | 0.516 | 3.83 | 1.95 | 1.95 | 1.49 | 3.16 |
| O=C(c1ccc(Nc2nccc(NCCCCNc3ccnc4cc(Cl)ccc34)n2)cc1)N1CCCCC1 | 6.22 | 8.84 | 6.02 | 4.62 | 7.64 | 8.74 | 4.03 | 9.29 | 3.34 | 3.79 | 0.674 | 2.77 | 2.24 | 1.8 | 1.83 | 2.63 | 2.08 | 2.38 | 1.75 | 1.69 |
| COc1ccc(-c2nnc(Nc3nc(O)c(C4=c5cc(Br)ccc5=NC4=O)s3)o2)cc1 | 46.4 | 50.1 | > 71.1 | 22.5 | > 100 | > 76.4 | 48.8 | 52.8 | 56.9 | 63.1 | 12.4 | 17.2 | 24 | 6.92 | > 43.9 | 19.3 | 17.3 | 15.5 | 7.79 | 19.4 |
| c1ccc2c(c1)[nH]c1c3ccccc3sc21 | > 100 | > 100 | > 100 | > 100 | > 100 | > 100 | > 100 | > 100 | > 100 | > 100 |  |  |  |  |  |  |  |  |  |  |
| c1ccc(/C(=N\Nc2nc3ccccc3s2)c2ccccn2)cc1 | 70.1 | > 100 | 97.8 | > 88.9 | > 72.5 | > 100 | > 61.8 | 39.8 | > 25.9 | 16.3 |  |  |  |  |  |  |  |  |  |  |
| COc1cccc(-c2nn(-c3ccccc3)cc2-c2ccnc(NCCCNS(=O)(=O)c3ccc(C(F)(F)F)cc3)c2)c1 | > 100 | > 100 | > 100 | > 100 | > 100 | > 100 | 12.4 | > 100 | 55.9 | > 100 | 3.8 | 5.76 | 13.8 | 5.41 | 3.87 | 7.13 | 2.84 | 8.4 | 6.3 | 2.9 |
| Cn1cc(-c2nc(-c3cn(C)c4ncccc34)cs2)c2ccccc21 | 13.5 | > 100 | 11.5 | > 100 | 17.5 | > 100 | 68.7 | > 100 | > 100 | > 100 | 1.5 | 0.972 | 2.01 | 4.14 | 0.372 | 3.43 | 4.5 | 4.76 | 3.61 | 4.93 |
| C=C1C(=O)O[C@H]2[C@H]1CC/C(COC(=O)/C=C\C(=O)NCc1ccc(Cn3c(=O)sn(-c4ccc(Cl)cc4)c3=O)cc1)=C\CC[C@@]1(C)O[C@@H]21 | 1.43 | 1.03 | 7.63 | 2.64 | 1.41 | 2.3 | 1.89 | 1.63 | 1.72 | 1.1 | 0.741 | 0.328 | 2.12 | 0.954 | 0.36 | 0.691 | 0.904 | 0.666 | 0.8 | 0.515 |
| Nc1cc(N)c2nc(-c3ccccc3)c(NCc3ccc(Cl)c(Cl)c3)nc2c1 | 32.4 | 52.7 | 31.9 | 46.7 | 54.3 | 13.5 | 4.26 | 24 | 15.7 | > 100 | 17.4 | 13.2 | 15.7 | 5.9 | 12.4 | 3.41 | 1.91 | 5.98 | 4.53 | 4.17 |
| Cc1nn(-c2ccccc2)c2nc(C)n(-c3ccc(Br)cc3)c(=O)c12 | 0.816 | > 100 | > 100 | > 100 | > 100 | > 100 | > 100 | > 100 | > 100 | 36.7 | 0.219 | 0.416 | 0.678 | 0.371 | 0.356 | 0.965 | 0.654 | 0.721 | 0.768 | 0.631 |
| N/C(=N/S(=O)(=O)c1cc(C(=O)Nc2ccc(F)cc2)c(Cl)cc1SCc1ccccc1)Nc1ccccc1O | 30.5 | > 100 | 4.52 | 3.8 | 6.13 | 4.14 | 4.02 | 3.7 | 26.7 | 37.4 | 16.3 | 23.8 | 2.04 | 1.72 | 2.79 | 1.92 | 2.13 | 1.88 | 12.2 | 17.3 |
| NS(=O)(=O)c1cc(C(=O)O)c(Cl)c([N+](=O)[O-])c1Cl | > 100 | > 100 | > 100 | > 100 | > 100 | > 100 | > 100 | > 100 | > 100 | > 100 |  |  |  |  |  |  |  |  |  |  |
| Nc1ncnc2c1ncn2CCCCC(=O)O | > 100 | > 100 | > 100 | > 100 | > 100 | > 100 | > 100 | > 100 | > 100 | > 100 |  |  |  |  |  |  |  |  |  |  |
| CCC(C(=O)[C@@H](C)[C@@H](O)[C@H](C)[C@@H]1O[C@@H]([C@@H](CC)C(=O)ONC(=O)c2ccccc2)CC[C@@H]1C)[C@H]1O[C@]2(C=CC(=O)[C@]3(CC[C@@](C)([C@H]4CC[C@](O)(CC)[C@H](C)O4)O3)O2)[C@H](C)C[C@@H]1C (stereo partly specified) | 0.731 | 2.71 | 1.95 | 2.58 | 1.62 | 2.77 | 2.91 | 1.49 | 5.61 | 1.79 | 0.0851 | 1.01 | 0.161 | 0.0991 | 0.0869 | 0.251 | 1.07 | 0.0614 | 0.255 | 0.403 |
| C/C=C(\C)C(=O)O[C@@H]1C=CC(=O)O[C@H]1CNC(=O)[C@H](C)O | 53 | 36.5 | 65.3 | 53.8 | 46.7 | > 100 | 48.5 | > 75.6 | > 84.4 | 59.1 | 21.2 | 17.8 | 26.4 | 16.7 | 15 | 30.5 | 20 | 26.9 | 26.9 | 21.3 |
| C1=C\CCCCN2CC[C@H]3[C@H](CCCC/C=C\CCCN4C[C@@H](CCCCC/1)C[C@@H]3C4)C2 | 21.4 | 14.1 | 29.8 | 15.4 | 15.1 | 25.3 | 26.3 | 23.9 | 3.5 | 10.5 | 6.31 | 5.13 | 15.7 | 5.22 | 3.58 | 10.8 | 10.4 | 11.6 | 1.74 | 4.35 |
